Data reported in article PMC3978507, “Fusion of a Short HA2-Derived Peptide Sequence to Cell-Penetrating Peptides Improves Cytosolic Uptake, but Enhances Cytotoxic Activity” (Pharmaceuticals, 2009).
Positions of bridges follow the written chain, without caps; N, C: chain ends. Residues, ends and D or L forms follow the SMILES beside them. Chains are numbered I, II in the order given.

Tests used:
[1] = system: HeLa cells; test: Flow cytometric studies of peptide uptake; format: cell-based, human; settings: for uptake of chimeric peptide versus parent CPP: CF-labelled, 10 min, several peptide concentrations, flow cytometry
Description: Finally, cells were diluted with cold HBSS and inspected.

[2] = system: Jurkat cells; test: Flow cytometric analysis of cell viability (FDA/PI staining); format: cell-based, human; settings: flow cytometry FDA/PI, 24 h, 1-50 µM peptide
Description: (§1) We used the following cell lines: HEK 293 (human embryonal kidney), HeLa (human cervix carcinoma), MCF-7 (human breast adenocarcinoma), HT-29 (human colon adenocarcinoma), K-562 (human chronic myeloid leukemia) and Jurkat (human T cell leukemia). All cells were cultured in 75 cm^2 culture flasks at 37 °C and 5% CO2 in a humidified atmosphere and split when confluent. For HEK 293 cells Dulbecco’s Modified Eagle Medium/ Ham’s F12 (without L-glutamine) containing 15% heat-inactivated foetal calf serum was used. HeLa and Jurkat cells were grown in supplemented RPMI 1640 (with L-glutamine) with 10% heat-inactivated foetal calf serum, MCF-7 cells in Dulbecco’s Modified Eagle Medium/ Ham’s F12 (without L-glutamine) containing 10% heat-inactivated foetal calf serum and 1% glutamine, and HT-29 and K-562 cells in Dulbecco’s Modified Eagle Medium supplemented with 10% heat-inactivated foetal calf serum. Detachment and dissociation of confluent cells was done by Trp/EDTA (0.05%/0.02% in PBS). For microscopic studies cells were seeded in glass-bottomed 8-well plates, whereas cells for cell viability and flow cytometric studies were cultured in 96-well plates.
(§2) Untreated cells were used as negative control.

[3] = system: K562 cells; test: as above; format: cell-based, human; settings: flow cytometry FDA/PI, 24 h, 1-50 µM peptide
Description: as §1, §2

[4] = system: HeLa cells; test: Resazurin-based cell viability assay; set-up: species or system human; settings: 24 h incubation, up to 100 µM peptide
Description: as §1

[5] = system: MCF-7 cells; test: MTT cell viability assay; format: cell-based, human; settings: 24 h, 1-100 µM peptide
Description: as §1

[6] = system: HT-29 cells; test: MTT cell viability assay; format: cell-based, human; settings: 24 h, 1-100 µM peptide
Description: as §1

[7] = system: K562 erythrocytes; settings: cited from earlier work
Excerpt: (§3) Therefore, we further elucidated the cytotoxicity profiles of the chimeric peptides for several cell lines (including MCF-7, HeLa and HT-29 cells, as well as suspension cell lines K562 and Jurkat).

[8] = system: MDA-MB-231 breast cancer cells; settings: cited from earlier work
Excerpt: as §3

[9] = system: several cell lines (MCF-7, HT-29, HEK293, K562, Jurkat); settings: for cytotoxicity, several cell lines: several cell lines (MCF-7, HT-29, HEK293, K562, Jurkat), concentrations of up to 100 µM
Description: The effect of the peptides on the viability of HT-29 and MCF-7 cells was checked by using the MTT-assay. Therefore, cells were cultivated to subconfluency under standard conditions in 96-well plates. The treatment was performed with 1-100 µM of the peptides for 24 h. Then, 10-fold stock solution of MTT reagent (5 mg/mL in medium) was added to each sample, and the cells were incubated for further 2 h. Formazan crystals were solubilised with 200 µL DMSO per well. After incubation for 15 min at 400 rpm and RT, absorbance was measured with a Tecan Saphire plate reader (560 nm, reference filter 630 nm).
The viability after peptide treatment (1-50 µM peptide solutions) for 24 h of the suspension cell lines Jurkat and K562 was tested by using flow cytometry. For this purpose, 2.5 × 10^5 cells per sample were stained with fluorescein diacetate (FDA) (0.04 µg/100 µL cell suspension) and propidium iodide (PI) (25 µg/100 µL cell suspension) in FACS buffer (1% BSA in PBS). Samples were incubated for 15 min at RT in the dark, washed and resuspended in FACS buffer.
Viability of the stained cells was analysed using a FACS®Calibur and CellQuest Pro analysis software (both Becton Dickinson, Franklin Lakes, USA) and is represented as relative cell number of viable cells. Untreated cells were used as negative control. Excitation and emission settings were 488 nm and 525–550 nm for FDA and 488 nm and 564–606 nm for PI staining.

Compound	uptake of chimeric peptide versus parent CPP [1]	IC50 [2] [µM]	IC50 [3] [µM]	IC50 [4] [µM]	IC50 [5] [µM]	IC50 [6] [µM]	haemolytic effect [7]	membrane toxicity [8]	cytotoxic effects, all tested cell lines ([9]; all tested cell lines, data not shown)	cytotoxicity, several cell lines [9]	cellular translocation of the peptide alone ([1]; CF-labelled analogue, 60 min, several concentrations, fluorescence microscopy and flow cytometry)
CC[C@H](C)[C@H](NC(=O)[C@H](C)NC(=O)[C@@H](NC(=O)[C@H](CCC(N)=O)NC(=O)[C@@H]1CCCN1C(=O)[C@H](Cc1ccccc1)NC(=O)[C@@H](NC(=O)[C@H](Cc1c[nH]cn1)NC(=O)[C@H](Cc1ccccc1)NC(=O)[C@H](CCCCNC(=O)[C@H](C)NC(=O)[C@H](Cc1ccccc1)NC(=O)[C@H](CCCCN)NC(=O)[C@H](CCCNC(=N)N)NC(=O)[C@H](CCCCN)NC(=O)[C@H](CCCCN)NC(=O)[C@H](CCCCN)NC(=O)[C@@H]1CCCN1C(=O)[C@H](C)NC(=O)[C@H](CCCCN)NC(=O)[C@H](CCCNC(=N)N)NC(=O)[C@H](CCCCN)NC(=O)[C@@H](N)CCCCN)NC(=O)[C@H](CCC(=O)O)NC(=O)[C@H](CC(C)C)NC(=O)[C@H](CC(C)C)NC(=O)[C@H](CCC(=O)O)NC(=O)[C@H](C)NC(=O)[C@H](CC(C)C)NC(=O)[C@H](C)NC(=O)[C@H](CCC(=O)O)NC(=O)[C@H](CC(C)C)NC(=O)[C@H](CC(C)C)NC(=O)CN)[C@@H](C)O)[C@@H](C)O)C(=O)NCC(=O)N[C@H](C(=O)NCC(=O)N[C@@H](C)C(=O)N1CCC[C@H]1C(N)=O)C(C)C [N-E5L-hCT(18-32)-k7] (I: H-GLLEALAELLEKFHTFPQTAIGVGAP-NH2 / II: H-KKRKAPKKKRKFA; amide I:12-II:C; N-terminus assumed)	higher uptake values	11.4 ± 4.2	> 30	33.1 ± 3.3	37.8 ± 6.5	59.1 ± 0.1					
CC[C@H](C)[C@H](NC(=O)[C@H](CCCCN)NC(=O)[C@H](CC(N)=O)NC(=O)[C@H](CCCNC(=N)N)NC(=O)[C@H](Cc1ccccc1)NC(=O)[C@H](CCCCN)NC(=O)[C@H](CCCNC(=N)N)NC(=O)[C@H](CC(C)C)NC(=O)[C@H](CCCNC(=N)N)NC(=O)[C@H](CCCCN)NC(=O)[C@H](CCCNC(=N)N)NC(=O)[C@H](CC(C)C)NC(=O)CNC(=O)[C@H](CCC(=O)O)NC(=O)[C@H](CC(C)C)NC(=O)[C@H](CC(C)C)NC(=O)[C@H](CCC(=O)O)NC(=O)[C@H](C)NC(=O)[C@H](CC(C)C)NC(=O)[C@H](C)NC(=O)[C@H](CCC(=O)O)NC(=O)[C@H](CC(C)C)NC(=O)[C@H](CC(C)C)NC(=O)CN)C(=O)N[C@@H](CCCCN)C(=O)N[C@@H](CCC(=O)O)C(=O)N[C@@H](CCCCN)C(N)=O [N-E5L-sC18] (H-GLLEALAELLEGLRKRLRKFRNKIKEK-NH2)	higher uptake values	7.3 ± 1.7	> 30	31.8 ± 1.9	30.8 ± 4.1	72.1 ± 0.1					
GRKKRRQRRRPPQ [Tat(48-60)]							no haemolytic effect	no membrane toxicity	no cytotoxic effects		
GLRKRLRKFRNKIKEK [sC18]										no cytotoxicity was observed	
GLLEALAELLE [N-E5L]										no cytotoxicity was observed	unable to translocate in cells
CC(C)C[C@H](NC(=O)CN)C(=O)N[C@@H](CC(C)C)C(=O)N[C@@H](CCC(=O)O)C(=O)N[C@@H](C)C(=O)N[C@@H](CC(C)C)C(=O)N[C@@H](C)C(=O)N[C@@H](CCC(=O)O)C(=O)N[C@@H](CC(C)C)C(=O)N[C@@H](CC(C)C)C(=O)N[C@@H](CCC(=O)O)C(=O)NCC(=O)N[C@@H](CCCNC(=N)N)C(=O)N[C@@H](CCCCN)C(=O)N[C@@H](CCCCN)C(=O)N[C@@H](CCCNC(=N)N)C(=O)N[C@@H](CCCNC(=N)N)C(=O)N[C@@H](CCC(N)=O)C(=O)N[C@@H](CCCNC(=N)N)C(=O)N[C@@H](CCCNC(=N)N)C(=O)N[C@@H](CCCNC(=N)N)C(=O)N1CCC[C@H]1C(=O)N1CCC[C@H]1C(=O)N[C@@H](CCC(N)=O)C(N)=O [N-E5L-Tat(48-60)] (H-GLLEALAELLEGRKKRRQRRRPPQ-NH2)	higher uptake values	7.9 ± 0.8	> 30	29.4 ± 3.9	39.3 ± 9.4	90.9 ± 0.2					
